From US20030181426A1, “Compositions and methods for treating pain using cyclooxygenase-1 inhibitors” (priority 2002, published 2003)

How the values were obtained:
[1] = tested on: tactile hypersensitivity after paw incision; assay: Brennan model: tactile hypersensitivity after paw incision, von Frey withdrawal threshold; type: in vivo, male Sprague-Dawley rats
COX-1 and COX-2 = conditions: as known in the art / Warner, 1999; cited from earlier work
tactile allodynia = assay: L5 and L6 spinal nerve ligation (SNL) tactile allodynia, lidocaine and ketorolac; type: in vivo, male Sprague-Dawley rats
PGE2 [2] = assay: PGE2 concentration in cerebrospinal fluid of volunteers; type: in vivo, humans; conditions: for Pre-injection PGE2: CSF before injection; for Post-injection PGE2: CSF 60 min after injection
noxious heat = assay: Latency to paw withdrawal from noxious heat; type: in vivo, male Sprague-Dawley rats
Method: After Animal Care and Use Committee approval, adult male Sprague-Dawley rats (240-330 g; Harlan, Indianapolis, Ind.) were anesthetized with halothane. A catheter was inserted, as previously described, through a small nick in the cisterna magnum membrane into the intrathecal space and advanced 7.5 cm such that its tip lay in the lumbar intrathecal space. […] After catheter implantation, rats were housed individually with a 12 h/12 h light/dark cycle and an unlimited supply of water and food. Experiments occurred at least 6 days after surgery.

PGE2 [3] = assay: CSF PGE2 concentrations in conscious dogs after i.t. ketorolac; type: in vivo; conditions: within 30 min of injection
phosphorylated CREB = assay: pCREB immunoreactive cells in dorsal horn of PSNL rats; type: in vivo; conditions: for increased number of pCREB-IR cells in the ipsilateral dorsal horn: 5 days after injection, three weeks after PSNL
Method: Quantitative analysis of the pCREB expression in the dorsal horn of PSNL rats receiving either saline or ketorolac intraplantar injection was conducted. […] However, no significant difference in the mean optical density in a fixed area occupied by pCREB-IR cells was detected between both sides of the dorsal horn.

[4] = Phase I safety trial of intrathecal ketorolac in healthy volunteers; type: in vivo, humans
[5] = intrathecal ketorolac 50 μg, 1 week after 200 μg intrathecal lidocaine
[6] = intrathecal ketorolac 50 μg, 1 week after 300 μg intrathecal lidocaine
[7] = intraplantar injection, vs saline injected rats, P<0.01

Structure (SMILES): O=C(c1ccccc1)c1ccc2n1CCC2C(=O)O (centres unmarked) [ketorolac]
- withdrawal threshold (von Frey) after paw incision ([1]; i.t. 50 μg given on the first postoperative day, established tactile hypersensitivity, within 30 min): increased withdrawal threshold
- withdrawal threshold (von Frey) after paw incision ([1]; i.t. 50 μg, pretreatment 15 min before surgery, compared to saline control 2 hr later and on the next day): increased withdrawal threshold
- preference in inhibition of COX-1 and COX-2 (COX-1 and COX-2): one of the most selective COX-1 antagonists
- tactile allodynia caused by SNL (tactile allodynia; intrathecal ketorolac 50 μg alone): failed to attenuate
- antiallodynic effect (tactile allodynia; intrathecal ketorolac 50 μg, 1 week after 100 μg intrathecal lidocaine): failed to exert any antiallodynic effect
- duration of reversal of tactile allodynia (tactile allodynia; [5]): 4 h
- tactile allodynia caused by SNL (tactile allodynia; [5]): reversed tactile allodynia
- duration of reversal of tactile allodynia (tactile allodynia; [6]): 4 h
- tactile allodynia caused by SNL (tactile allodynia; [6]): reversed tactile allodynia
- SNL-induced tactile allodynia (tactile allodynia; intrathecal ketorolac 50 μg, 1 week following prior intrathecal ketorolac 50 μg): failed to alleviate
- SNL-induced tactile allodynia (tactile allodynia; intrathecal ketorolac 100 μg alone): failed to alleviate
- SNL-induced tactile allodynia (tactile allodynia; intrathecal ketorolac 100 μg, 1 week after intrathecal lidocaine): exhibited the antiallodynic effect
- antiallodynic effect (tactile allodynia; one day after intrathecal ketorolac, rats previously given 200 and 300 μg lidocaine): disappeared
- Pre-injection PGE2 (PGE2 [2]; 0.25 mg dose group): 4.7 ± 0.7 pg/mL
- Post-injection PGE2 (PGE2 [2]; 0.25 mg i.t.): 6.0 ± 0.9 pg/mL
- Pre-injection PGE2 (PGE2 [2]; 0.50 mg dose group): 5.6 ± 1.9 pg/mL
- Post-injection PGE2 (PGE2 [2]; 0.50 mg i.t.): 3.8 ± 0.6 pg/mL
- Pre-injection PGE2 (PGE2 [2]; 1.0 mg dose group): 4.1 ± 0.9 pg/mL
- Post-injection PGE2 (PGE2 [2]; 1.0 mg i.t.): 8.5 ± 1.7 pg/mL
- Pre-injection PGE2 (PGE2 [2]; 2.0 mg dose group): 4.9 ± 0.7 pg/mL
- Post-injection PGE2 (PGE2 [2]; 2.0 mg i.t.): 7.5 ± 1.7 pg/mL
- CSF PGE2 concentration 60 min after ketorolac injection (PGE2 [2]; entire study population): 6.1 ± 0.6 pg/mL
- CSF PGE2 concentration prior to ketorolac injection (PGE2 [2]; entire study population): 4.9 ± 0.5 pg/mL
- effect on CSF PGE2 concentrations (PGE2 [2]; entire study population, 60 min after injection): not affected
- antinociception (latency to paw withdrawal from noxious heat) (noxious heat; addition of ketorolac to clonidine): increased antinociception
- antinociception (latency to paw withdrawal from noxious heat) (noxious heat; drug alone, rats with intrathecal catheter): did not
- withdrawal threshold to noxious heat (noxious heat; i.t. ketorolac, rats): lack of effect
- reduction of CSF PGE2 concentrations (PGE2 [3]): > 90%
- increased number of pCREB-IR cells in the ipsilateral dorsal horn (phosphorylated CREB; intraplantar injection): dramatically reduced
- mean optical density of pCREB-IR cells, contralateral dorsal horn (phosphorylated CREB; [7]): significantly decreased
- mean optical density of pCREB-IR cells, ipsilateral dorsal horn (phosphorylated CREB; [7]): significantly decreased
- number of pCREB-IR cells in the contralateral dorsal horn (phosphorylated CREB; local injection, compared with saline injected PSNL rats): also decreased
- increased number of pCREB-IR cells in the ipsilateral dorsal horn (phosphorylated CREB; peri-neural injection): dramatically reduced
- headache ([4]; 0.5 mg i.t., one individual, 24 h after injection, resolved the following day): mild headache
- heart rate prior to injection, range ([4]; entire group): 52-86 bpm
- minimum heart rate at any time after injection, range ([4]; entire group): 45-69 bpm
- heart rate prior to injection ([4]; entire group, mean ± SE): 67±2.1 bpm
- minimum heart rate at any time after injection ([4]; entire group, mean ± SE): 57±1.7 bpm
- heart rate ([4]; for 1 hr following ketorolac, significant within each dose group except 2.0 mg): decreased
- side effects ([4]; i.t. 0.25, 0.5, 1, or 2 mg open label dose-escalation, early studies of 14 subjects): no side effects were observed
- blood pressure, oxyhemoglobin saturation, end-tidal CO2 ([4]; i.t. 0.25-2 mg): did not affect
- deviation of blood pressure, oxyhemoglobin saturation, end-tidal CO2 from pre-injection values ([4]; i.t. 0.25-2 mg): ≤ 10%
- side effects at long-term follow up ([4]; i.t. 0.25-2 mg): no side effects
- subjective neurologic symptoms ([4]; i.t. 0.25-2 mg): no subjective neurologic symptoms in any volunteer
- symptomatic bradycardia ([4]; i.t. 0.25-2 mg): In no case
- sedation, anxiety, gastrointestinal or genitourinary symptoms, or dizziness ([4]; i.t. 0.25-2 mg, at any time): No volunteer reported
- neurologic examination ([4]; i.t. 0.25-2 mg, twenty volunteers): no effect
- side effects ([4]; i.t., doses up to 1.0 mg): no side effects
- systemic toxicity at large doses (dog, in vivo): gastrointestinal ulceration and bleeding
- spinal neurotoxicity (i.t., dogs): no evidence for spinal neurotoxicity
